From patent publication EP0350948B1, “Porphyrin derivatives” (TOYOHAKKA KOGYO KABUSHIKI KAISHA, priority 1988, dated 1990)

Key:
[1] = system: nitrosoamine-induced pancreatic cancer; experiment: laser irradiation to the extirpated organ (excited fluorescent spectrum, N2-PLS measurement), tumor to tissue ratio; format: in vivo, Golden hamsters; details: i.v. 25 mg/kg bodyweight, organs extirpated at 24 hours after administration
Experimental: Golden hamsters (males, 5 per group, bodyweight approximately 150 g) were implanted subcutaneously tumor cells of the nitrosoamine-induced pancreatic cancer. After 14 to 21 days following implantation, animals were intravenously (i.v.) administered the test substance EG-Ga-DP-diGly (10 mg/ml) which had been diluted with phosphate buffer at 25 mg/kg bodyweight. At 24 hours after administration, the organs including the tumor were extirpated, irradiated with N2-pulsed laser (N2, 337 nm, 2 ns, 400 - 1000 nm), and measured of excited fluorescent spectrum. The wavelengths of 600 - 900 nm were studied using the peak wavelength of NADH at 470 nm as a reference. (N2-PLS measurement). […] (Tumor to tissue ratio).
Excited fluorescent spectra of the organs extirpated at 24 hours after administration were measured, and the peak wavelength at 600 - 900 nm was calculated by setting the peak wavelength at 470 nm as the reference 1. As fluorescence in Mn, Fe and Cu complexes is not sufficiently intense as to enable N2-PLS measurement, the extraction method was applied to these compounds. At 24 hours following administration, the organs were extracted with an organic solvent (such as chloroform-methanol) via acetone powder, and the obtained extract was measured of UV or HPLC to calculate the tumor to tissue ratio.

[2] = system: nitrosoamine-induced pancreatic cancer; experiment: in vivo hemorrhagic necrosis effect; parameters: species or system hamsters; key to Hemorrhagic necrosis effect: four scales of G4, G3, G2 and G1; four scales of G4, G3, G2 and G1; four scales of G4, G3, G2 and G1; four scales of G4, G3, G2 and G1; details: for photograph of a cancer mass (Fig. 2) / photograph of a cancer mass (Fig. 1): 24 hours after administration, Cn-Ga-DP-diAsp; for photograph of a cancer mass (Fig. 2): n = even numbers; for photograph of a cancer mass (Fig. 1): n = odd numbers; for Hemorrhagic necrosis effect: intensity of hemorrhagic necrosis at 24 hours following i.v. administration, and pathological study
Experimental: Cancer bearing hamsters of Experiment 1 were i.v. administered the test substance C6-Ga-DP-diAsp (10) (10 mg/ml) which had been diluted with phosphate buffer at 25 mg/kg bodyweight and 12.5 mg/kg bodyweight respectively. The animals were exsanguinated and autopsied at 24 hours after administration, and observed.
The evaluation was based on the four scales of G4, G3, G2 and G1.

Structure (SMILES) | tumor/tissue cancer/ kidney [1] | tumor/tissue cancer/ liver [1] | tumor/tissue cancer/ lung [1] | tumor/tissue cancer/ serum [1] | photograph of a cancer mass (Fig. 2) [2] | photograph of a cancer mass (Fig. 1) [2] | Hemorrhagic necrosis effect [2]
CCCCOC(C)C1=C(C)C2=Cc3c(C(C)OCCCC)c(C)c4[n]3[Ga][n]3c(c(C)c(CCC(=O)NC(CC(=O)O)C(=O)O)c3=CC3=NC(=C4)C(C)=C3CCC(=O)NC(CC(=O)O)C(=O)O)=CC1=N2 (centres unmarked) [(8) C4-Ga-DP-diAsp, 2,4-bis(1-butoxyethyl)-Ga-deuteroporphynyl diaspartic acid] | 7.72 | 3.54 | 4.47 | 2.00 | hemorrhagic necrosis | hemorrhagic necrosis | G4
C=CC1=C(C)C2=Cc3c(C(C)OCCO)c(C)c4[n]3[Ga][n]3c(c(C)c(CCC(=O)NC(CC(=O)O)C(=O)O)c3=CC3=NC(=C4)C(C)=C3CCC(=O)NC(CC(=O)O)C(=O)O)=CC1=N2 (centres unmarked) [(2) monoEG-Ga-DP-diAsp, 2-[1-(2-hydroxyethyloxy)ethyl]-4-ethenyl-Ga-deuteroporphynyl diaspartic acid] | 1.32 | 2.30 | 1.50 | – | – | – | G1
CC1=C(CCC(=O)NC(CC(=O)O)C(=O)O)C2=NC1=Cc1c(C)c(C(C)OCCc3ccccc3)c3[n]1[Ga][n]1c(c(C)c(CCC(=O)NC(CC(=O)O)C(=O)O)c1=C2)=CC1=NC(=C3)C(C)=C1C(C)OCCc1ccccc1 (centres unmarked) [(14) C8(Phenethyl)-Ga-DP-diAsp, 2,4-bis(1-phenethyloxyethyl)-Ga-deuteroporphynyl diaspartic acid] | 3.79 | 3.79 | 2.89 | 0.72 | – | – | G1
CCCCCCCOC(C)C1=C(C)C2=Cc3c(C(C)OCCCCCCC)c(C)c4[n]3[Ga][n]3c(c(C)c(CCC(=O)NC(CC(=O)O)C(=O)O)c3=CC3=NC(=C4)C(C)=C3CCC(=O)NC(CC(=O)O)C(=O)O)=CC1=N2 (centres unmarked) [(11) C7-Ga-DP-diAsp, 2,4-bis(1-heptyloxyethyl)-Ga-deuteroporphynyl diaspartic acid] | 4.88 | 2.96 | 2.92 | 0.89 | – | hemorrhagic necrosis | G4
CC1=C(CCC(=O)NC(CC(=O)O)C(=O)O)C2=NC1=Cc1c(C)c(C(C)OCCC(C)CCCC(C)C)c3[n]1[Ga][n]1c(c(C)c(CCC(=O)NC(CC(=O)O)C(=O)O)c1=C2)=CC1=NC(=C3)C(C)=C1C(C)OCCC(C)CCCC(C)C (centres unmarked) [(19) C10(H2Citro)-Ga-DP-diAsp, 2,4-bis(1-dihydrocitronellyloxyethyl)-Ga-deuteroporphynyl diaspartic acid] | 11.49 | 9.09 | 11.11 | 3.50 | – | – | G2
CCCCCCCCCOC(C)C1=C(C)c2cc3[nH]c(cc4nc(cc5[nH]c(cc1n2)c(C)c5C(C)OCCCCCCCCC)C(C)=C4CCC(=O)NC(CC(=O)O)C(=O)O)c(CCC(=O)NC(CC(=O)O)C(=O)O)c3C.[Ga] (centres unmarked) [(15) C9-Ga-DP-diAsp, 2,4-bis(1-nonyloxyethyl)-Ga-deuteroporphynyl diaspartic acid] | 3.54 | 2.07 | 3.40 | 1.12 | – | hemorrhagic necrosis | G2
CC(C)=CCCC(C)CCOC(C)C1=C(C)C2=Cc3c(C(C)OCCC(C)CCC=C(C)C)c(C)c4[n]3[Ga][n]3c(c(C)c(CCC(=O)NC(CC(=O)O)C(=O)O)c3=CC3=NC(=C4)C(C)=C3CCC(=O)NC(CC(=O)O)C(=O)O)=CC1=N2 (centres unmarked) [(18) C10(Citro)-Ga-DP-diAsp, 2,4-bis(1-citronellyloxyethyl)-Ga-deuteroporphynyl diaspartic acid] | 15.66 | 11.37 | 12.39 | 2.82 | – | – | G2
CCCCCCCCCCCCOC(C)C1=C(C)c2cc3[nH]c(cc4nc(cc5[nH]c(cc1n2)c(C)c5C(C)OCCCCCCCCCCCC)C(C)=C4CCC(=O)NC(CC(=O)O)C(=O)O)c(CCC(=O)NC(CC(=O)O)C(=O)O)c3C.[Ga] (centres unmarked) [(22) C12-Ga-DP-diAsp, 2,4-bis (1-dodecyloxyethyl)-Ga-deuteroporphynyl diaspartic acid] | 8.54 | 4.38 | 7.00 | 1.35 | hemorrhagic necrosis | – | G2
CC(C)=CCC/C(C)=C/COC(C)C1=C(C)C2=Cc3c(C(C)OC/C=C(\C)CCC=C(C)C)c(C)c4[n]3[Ga][n]3c(c(C)c(CCC(=O)NC(CC(=O)O)C(=O)O)c3=CC3=NC(=C4)C(C)=C3CCC(=O)NC(CC(=O)O)C(=O)O)=CC1=N2 (centres unmarked) [(17) C10(Gera)-Ga-DP-diAsp, 2,4-bis(1-geranyloxyethyl)-Ga-deuteroporphynyl diaspartic acid] | 3.82 | 3.33 | 4.88 | 2.19 | – | – | G2

Further lines, with some results ahead:

tumor/tissue cancer/ kidney [1] | tumor/tissue cancer/ liver [1] | tumor/tissue cancer/ lung [1] | tumor/tissue cancer/ serum [1] | Structure (SMILES) | photograph of a cancer mass (Fig. 2) [2] | photograph of a cancer mass (Fig. 1) [2] | Hemorrhagic necrosis effect [2]
1.25 | 0.71 | 1.25 | 1.16 | CCOC(C)C1=C(C)C2=Cc3c(C(C)OCC)c(C)c4[n]3[Ga][n]3c(c(C)c(CCC(=O)NC(CC(=O)O)C(=O)O)c3=CC3=NC(=C4)C(C)=C3CCC(=O)NC(CC(=O)O)C(=O)O)=CC1=N2 (centres unmarked) [(5) C2-Ga-DP-diAsp, 2,4-bis(1-ethoxyethyl)-Ga-deuteroporphynyl diaspartic acid] | hemorrhagic necrosis | – | G1
3.03 | 2.63 | 2.33 | 1.54 | CC1=C(CCC(=O)NC(CC(=O)O)C(=O)O)C2=NC1=Cc1c(C)c(C(C)OC(C)C)c3[n]1[Ga][n]1c(c(C)c(CCC(=O)NC(CC(=O)O)C(=O)O)c1=C2)=CC1=NC(=C3)C(C)=C1C(C)OC(C)C (centres unmarked) [(7) C3(iso)-Ga-DP-diAsp, 2,4-bis(1-isopropoxyethyl)-Ga-deuteroporphynyl diaspartic acid] | – | – | G2
14.44 | 2.95 | 3.42 | 5.91 | CCCOC(C)C1=C(C)C2=Cc3c(C(C)OCCC)c(C)c4[n]3[Ga][n]3c(c(C)c(CCC(=O)NC(CC(=O)O)C(=O)O)c3=CC3=NC(=C4)C(C)=C3CCC(=O)NC(CC(=O)O)C(=O)O)=CC1=N2 (centres unmarked) [(6) C3-Ga-DP-diAsp, 2,4-bis(1-propoxyethyl)-Ga-deuteroporphynyl diaspartic acid] | – | hemorrhagic necrosis | G2
2.27 | 1.19 | 0.78 | 2.50 | COC(C)C1=C(C)C2=Cc3c(C(C)OC)c(C)c4[n]3[Ga][n]3c(c(C)c(CCC(=O)NC(CC(=O)O)C(=O)O)c3=CC3=NC(=C4)C(C)=C3CCC(=O)NC(CC(=O)O)C(=O)O)=CC1=N2 (centres unmarked) [(4) C1-Ga-DP-diAsp, 2,4-bis(1-methoxyethyl)-Ga-deuteroporphynyl diaspartic acid] | – | – | G1
